# Patent US10568930B2, “Agents and methods of treatment” (Hexima Limited, priority 2014, dated 2020)
# Read-outs that look alike come from different tables or passages of the source.
# How the values were obtained:
# Candida albicans [1] = assay: Antifungal growth assay, defensin plus proteinase inhibitor; type: cell-based; design: key to Synergy: Io-Ee in % inhibition points; >60 high synergy, <15 none; conditions: for Expected inhibition: Ee, Limpel formula; for Synergy: Io-Ee
# Description: (§1) Spores are isolated from sporulating fungus spp. growing on yeast extract peptone dextrose agar (Candida albicans, Cryptococcus gattii—1.5×10^6) or ½ strength Sabouraud dextrose agar (Trichophyton interdigitale, Microsporum fulvum—5×10^4). Spores are removed from the plates by the addition of ½ strength potato dextrose broth (PDB). Spore concentrations are measured using a haemocytometer.
# (§2) Antifungal assays were conducted in 96 well microtitre plates. Wells were loaded with 10 μL of filter sterilized (0.22 μm syringe filter, Millipore) defensin (10× stock for each final concentration) or water, 10 μL, of filter sterilized (0.22 μm syringe filter, Millipore) proteinase inhibitor or chemical fungicide (10× stock for each final concentration) or water and 80 μL of 5×10^3 spores/mL in ½ strength PDB. The plates were incubated at 24° C. Fungal growth was assayed by measuring optical density at 595 nm (A595) using a microtitre plate reader (SpectraMax Pro M2; Molecular Devices. Growth was allowed to proceed until the optical density (OD) of the fungus in the absence of any test defensin reached an OD of 0.2. Each test was performed in duplicate.
# (§3) Synergy is classified as the difference between the observed % fungal growth inhibition caused by the combination of a defensin and a proteinase inhibitor (or a defensin and a chemical fungicide) (Io value) and the expected % fungal growth inhibition of the defensin and the proteinase inhibitor (or the defensin and the chemical fungicide) based on the sum of the % fungal growth inhibition of the defensin and the proteinase inhibitor (or the defensin and the chemical fungicide) on their own (Ee value calculated according to the Limpel formula used by Richer et al. (1987) supra). The difference, Io-Ee, is the synergy value. A synergy value up to 15 means no significant synergy; 15-30 is a low level of synergy; 30-60 is a medium level of synergy; and >60 is a high level of synergy. Synergy calculations are presented in Tables 2 through 7 wherein, as indicated above, Ee is the expected effect from the additive response according to Limpel's formula expressed as percent inhibition and To is the percent inhibition observed. Synergy occurs when To values are higher than Ee values.
# Cryptococcus gattii = assay: as above; type: cell-based; conditions: for Expected inhibition: Ee, Limpel formula; for Synergy: Io-Ee
# Description: as §1, §2, §3
# [2] = system: Trichophyton interdigitale; assay: as above; type: cell-based; conditions: for Expected inhibition: Ee, Limpel formula; for Synergy: Io-Ee
# Description: as §1, §2, §3
# Candida albicans [3] = assay: Antifungal growth assay, defensin plus chemical fungicide; type: cell-based; design: key to Synergy: Io-Ee in % inhibition points; <15 none, 15-30 low, 30-60 medium, >60 high; conditions: for Expected inhibition: Ee, Limpel formula; for Synergy: Io-Ee
# Description: Chemical fungicides were sourced commercially and were prepared as 10× stock solutions in H2O (caspofungin and fenpropimorph) or as a 100× stock in methanol (terbinafine).
# as §1, §2, §3
# Microsporum fulvum = assay: Antifungal growth assay, defensin plus proteinase inhibitor; type: cell-based; conditions: for Expected inhibition: Ee, Limpel formula; for Synergy: Io-Ee
# Description: as §1, §2, §3
# plasma membrane = conditions: cited from earlier work
# [4] = defensin 2 μM + BPTI (0.625 μM)
# [5] = defensin 2 μM + HyCPI6 (2.5 μM)
# [6] = defensin 2 μM + SlCys9N (2.5 μM)
# [7] = defensin 0.5 μM + BPTI (0.625 μM)
# [8] = defensin 0.5 μM + HvCPI6 (2.5 μM)
# [9] = defensin 0.5 μM + SlCys9N (2.5 μM)
# [10] = defensin 1.5 μM + Caspofungin (2 ng/ml)
# [11] = defensin 1.5 μM + Fenpropimorph (2 ug/ml)
# [12] = defensin 1.5 μM + Terbinafine (4 ng/ml)
# [13] = defensin 2 μM + HvCPI6 (2.5 μM)
# [14] = defensin 0.5 μM + HyCPI6 (0.625 μM)
# [15] = defensin 0.5 μM + SlCys9N (5 μM)
# [16] = defensin 1 μM + BPTI (0.625 μM)
# [17] = defensin 1 μM + HvCPI6 (2.5 μM)
# [18] = defensin 1 μM + SlCys9N (2.5 μM)
# [19] = permeabilizing defensin 1 μM + Caspofungin (2 ng/ml)
substance,measurement,setting,value
"HXP4: artificial (synthetic) defensin variant, SEQ ID NO:8; permeabilizing (RECKTESHRFKGPCITKPPCRKACISEKFTDGHCSKILRRCLCTKPC; HXP4 protein)",Observed inhibition,Candida albicans [1]; [4],100%
same,Expected inhibition,Candida albicans [1]; [4],16.2%
same,Synergy,Candida albicans [1]; [4],83.8
same,Observed inhibition,Candida albicans [1]; [5],93.5%
same,Expected inhibition,Candida albicans [1]; [5],15.9%
same,Synergy,Candida albicans [1]; [5],77.6
same,Observed inhibition,Candida albicans [1]; [6],92.4%
same,Expected inhibition,Candida albicans [1]; [6],33%
same,Synergy,Candida albicans [1]; [6],59.4
same,Observed inhibition,Cryptococcus gattii; [7],97.4%
same,Expected inhibition,Cryptococcus gattii; [7],48.8%
same,Synergy,Cryptococcus gattii; [7],48.6
same,Observed inhibition,Cryptococcus gattii; [8],97.4%
same,Expected inhibition,Cryptococcus gattii; [8],18.6%
same,Synergy,Cryptococcus gattii; [8],78.8
same,Observed inhibition,Cryptococcus gattii; [9],99.3%
same,Expected inhibition,Cryptococcus gattii; [9],0.0%
same,Synergy,Cryptococcus gattii; [9],99.3
same,Observed inhibition,[2]; [7],69.0%
same,Expected inhibition,[2]; [7],32.9%
same,Synergy,[2]; [7],36.1
same,Observed inhibition,[2]; [8],56.8%
same,Expected inhibition,[2]; [8],31.1%
same,Synergy,[2]; [8],25.7
same,Observed inhibition,[2]; [9],53.0%
same,Expected inhibition,[2]; [9],9.7%
same,Synergy,[2]; [9],43.4
same,Observed inhibition,Candida albicans [3]; [10],64.5%
same,Expected inhibition,Candida albicans [3]; [10],14.5%
same,Synergy,Candida albicans [3]; [10],50.0
same,Observed inhibition,Candida albicans [3]; [11],97.6%
same,Expected inhibition,Candida albicans [3]; [11],15%
same,Synergy,Candida albicans [3]; [11],82.6
same,Observed inhibition,Candida albicans [3]; [12],82.7%
same,Expected inhibition,Candida albicans [3]; [12],44.8%
same,Synergy,Candida albicans [3]; [12],37.9
"NaD1: Solanaceous Class II plant defensin from flowers of Nicotiana alata (Q8GTMO); permeabilizing defensin (RECKTESNTFPGICITKPPCRKACISEKFTDGHCSKILRRCLCTKPC; UniProt Q8GTM0 26-72, looked up)",Observed inhibition,Candida albicans [1]; [4],94.1%
same,Expected inhibition,Candida albicans [1]; [4],29.7%
same,Synergy,Candida albicans [1]; [4],64.4
same,Observed inhibition,Candida albicans [1]; [5],64.7%
same,Expected inhibition,Candida albicans [1]; [5],0.0%
same,Synergy,Candida albicans [1]; [5],64.7
same,Observed inhibition,Candida albicans [1]; [6],94.8%
same,Expected inhibition,Candida albicans [1]; [6],31.9%
same,Synergy,Candida albicans [1]; [6],62.9
same,Observed inhibition,Cryptococcus gattii; [4],95.6%
same,Expected inhibition,Cryptococcus gattii; [4],22.0%
same,Synergy,Cryptococcus gattii; [4],73.7
same,Observed inhibition,Cryptococcus gattii; [13],96.2%
same,Expected inhibition,Cryptococcus gattii; [13],32.1%
same,Synergy,Cryptococcus gattii; [13],64.1
same,Observed inhibition,Cryptococcus gattii; [6],98.8%
same,Expected inhibition,Cryptococcus gattii; [6],0.0%
same,Synergy,Cryptococcus gattii; [6],98.8
same,Observed inhibition,Microsporum fulvum; [7],52.9%
same,Expected inhibition,Microsporum fulvum; [7],34.3%
same,Synergy,Microsporum fulvum; [7],18.6
same,Observed inhibition,Microsporum fulvum; [14],43.8%
same,Expected inhibition,Microsporum fulvum; [14],19.0%
same,Synergy,Microsporum fulvum; [14],24.8
same,Observed inhibition,Microsporum fulvum; [15],79.9%
same,Expected inhibition,Microsporum fulvum; [15],40.7%
same,Synergy,Microsporum fulvum; [15],39.2
same,Observed inhibition,[2]; [16],89.1%
same,Expected inhibition,[2]; [16],57.9%
same,Synergy,[2]; [16],31.2
same,Observed inhibition,[2]; [17],71.6%
same,Expected inhibition,[2]; [17],33.5%
same,Synergy,[2]; [17],38.1
same,Observed inhibition,[2]; [18],81.1%
same,Expected inhibition,[2]; [18],28.1%
same,Synergy,[2]; [18],53.0
same,Observed inhibition,Candida albicans [3]; [19],61.7%
same,Expected inhibition,Candida albicans [3]; [19],1.2%
same,Synergy,Candida albicans [3]; [19],60.5
same,Membrane permeabilization,plasma membrane; at concentrations corresponding to the IC50,significant membrane permeabilization
same,Membrane permeabilization,"plasma membrane; at low concentrations that do not cause growth inhibition, van der Weerden et al. (2008)",some membrane permeabilization
same,Time at which permeabilization begins,plasma membrane; van der Weerden et al. (2010),≤ 15 min
same,Time at which permeabilization reaches its maximum,plasma membrane; van der Weerden et al. (2010),80 min
